From ChEMBL document CHEMBL3425494, “Design, synthesis, and antitumor evaluation of novel histone deacetylase inhibitors equipped with a phenylsulfonylfuroxan module as a nitric oxide donor” (J Med Chem, 2015)

Legend:
[1] = target: Histone deacetylase (HDAC1 and HDAC2) (Homo sapiens, UniProt Q13547+Q92769); test: Inhibition of HDAC1/HDAC2 in human HeLa cells using Boc-Lys(acetyl)-AMC as substrate after 30 mins by fluorescence assay; assay type: cell-based
HEL [2] = test: Cytotoxicity against human HEL cells assessed as growth inhibition after 48 hrs by MTT assay; assay type: functional, cell-based
HeLa = test: Cytotoxicity against human HeLa cells assessed as growth inhibition after 48 hrs by MTT assay; assay type: functional, cell-based
[3] = Cytotoxicity against human U937 cells assessed as growth inhibition after 48 hrs by MTT assay; assay type: functional, cell-based; settings: U-937, 48 h
[4] = Cytotoxicity against human KG1 cells assessed as growth inhibition after 48 hrs by MTT assay; assay type: functional, cell-based; settings: KG-1, 48 h
[5] = Cytotoxicity against human MDA cells assessed as growth inhibition after 48 hrs by MTT assay; assay type: functional, cell-based
[6] = Cytotoxicity against human ES2 cells assessed as growth inhibition after 48 hrs by MTT assay; assay type: functional, cell-based; settings: ES-2, 48 h
[7] = Cytotoxicity against human HCT116 cells assessed as growth inhibition after 48 hrs by MTT assay; assay type: functional, cell-based; settings: HCT-116, 48 h
[8] = Cytotoxicity against human 3AO cells assessed as growth inhibition after 48 hrs by MTT assay; assay type: functional, cell-based
HEL [9] = test: Cell cycle arrest in human HEL cells assessed as accumulation at S phase at 0.5 uM after 48 hrs by propidium iodide staining-based flow cytometric analysis (reference value: 46.88%); assay type: functional
HEL [10] = test: Cell cycle arrest in human HEL cells assessed as accumulation at G2 phase at 0.5 uM after 48 hrs by propidium iodide staining-based flow cytometric analysis (reference value: 5.28%); assay type: functional
HEL [11] = test: Cytotoxicity against human HEL cells assessed as growth inhibition after 48 hrs by MTT assay in presence of SAHA; assay type: functional, cell-based
HEL [12] = test: Cell cycle arrest in human HEL cells assessed as accumulation at G1 phase at 0.5 uM after 48 hrs by propidium iodide staining-based flow cytometric analysis (reference value: 47.87%); assay type: functional

Row | Structure (SMILES) | IC50 [1] [µM] | IC50 (HEL [2]) [µM] | IC50 (HeLa) [µM] | IC50 [3] [µM] | IC50 [4] [µM] | IC50 [5] [µM] | IC50 [6] [µM] | IC50 [7] [µM] | IC50 [8] [µM] | Activity (HEL [9]) [%] | Activity (HEL [10]) [%] | IC50 (HEL [11]) [µM] | Activity (HEL [12]) [%]
1 | O=S(=O)(c1ccccc1)c1c(OCCCCCCO)no[n+]1[O-] | > 1000 | 2.16 | – | – | – | – | – | – | – | – | – | – | –
2 | O=C(CCCCCCCOc1no[n+]([O-])c1S(=O)(=O)c1ccccc1)NO | 0.063 | 10.8 | 5.03 | 9.3 | 0.63 | 2.7 | 1.32 | – | – | – | – | – | –
3 | COc1cc(C(=O)NO)ccc1Oc1no[n+]([O-])c1S(=O)(=O)c1ccccc1 | 7.3 | 5.55 | 2.26 | 3.64 | 1.65 | 8.02 | 3.55 | 5.03 | 1.24 | – | – | – | –
4 | O=C(CCCCOc1no[n+]([O-])c1S(=O)(=O)c1ccccc1)NO | 0.13 | 1.03 | 3.65 | 2.91 | 1.91 | 2.53 | 2.53 | 2.18 | 4.3 | – | – | – | –
5 | O=C(NO)c1cccc(Oc2no[n+]([O-])c2S(=O)(=O)c2ccccc2)c1 | 1.6 | 2.6 | 4.67 | 6.49 | 1.86 | 13.9 | 4.19 | 4.57 | 9.94 | – | – | – | –
6 | O=C(/C=C/c1ccc(Oc2no[n+]([O-])c2S(=O)(=O)c2ccccc2)cc1)NO | 0.15 | 2.41 | 10.4 | 16.1 | 2.75 | 25.6 | 24.1 | 8.09 | 38.1 | – | – | – | –
7 | O=C(Cc1ccc(Oc2no[n+]([O-])c2S(=O)(=O)c2ccccc2)cc1)NO | 0.14 | 13 | 10.4 | 5.01 | 1.8 | 15 | 4.13 | 14.2 | 22.2 | – | – | – | –
8 | O=C(CCCCCCOc1no[n+]([O-])c1S(=O)(=O)c1ccccc1)NO | 0.054 | 9.33 | – | 9.93 | 4.27 | 1.21 | 7.73 | 4.69 | – | – | – | – | –
9 | CC(C)(COc1no[n+]([O-])c1S(=O)(=O)c1ccccc1)C(=O)NO | > 1000 | 5.01 | – | 12.5 | 6.08 | 9.55 | 6.88 | – | 18.3 | – | – | – | –
10 | O=C(CCCCCCC(=O)Nc1ccccc1)NO [VORINOSTAT] | – | – | – | – | – | – | – | – | – | 20.02 | 0 | – | –
11 | CCCC(C)(COc1no[n+]([O-])c1S(=O)(=O)c1ccccc1)C(=O)NO (stereo not drawn) | > 1000 | 71.5 | – | 25.4 | 4.06 | 60.5 | 93.3 | 66.1 | 88.7 | – | – | – | –
12 | O=C(CCCOc1no[n+]([O-])c1S(=O)(=O)c1ccccc1)NO | 0.047 | 0.67 | 4.79 | 3.3 | 1.48 | 6.2 | 3.78 | – | 22 | – | – | – | –
13 | O=C(COCCOc1no[n+]([O-])c1S(=O)(=O)c1ccccc1)NO | 1.5 | 6.79 | – | 8.15 | 7.4 | 15.1 | 8.69 | 13.4 | 19.8 | – | – | – | –
14 | O=C(NO)c1ccc(Oc2no[n+]([O-])c2S(=O)(=O)c2ccccc2)cc1 | 0.047 | 0.92 | 1.73 | 4.73 | 1.24 | 6.66 | 2.19 | 2.7 | 4.35 | – | – | – | –
15 | O=C(COCCOCCOc1no[n+]([O-])c1S(=O)(=O)c1ccccc1)NO | 4.3 | 3.73 | 5.14 | 12.1 | 5.38 | 15.8 | 18.1 | 11.7 | 19.4 | – | – | – | –
16 | O=S(=O)(c1ccccc1)c1no[n+]([O-])c1S(=O)(=O)c1ccccc1 | > 1000 | 0.69 | – | – | – | – | – | – | – | 43.29 | 3.3 | 0.53 | 53.4
17 | O=C(/C=C/COc1no[n+]([O-])c1S(=O)(=O)c1ccccc1)NO | 3.7 | – | 8.74 | – | – | 47.7 | 19.1 | – | 57.7 | – | – | – | –
